1 compound from patent publication US9513288B2, “Isoform-selective inhibitors and activators of PDE3 cyclic nucleotide phosphodiesterases” (The United States of America, as represented by the …, priority 2001, dated 2016) can be followed below.

One test deals with PDE3A2. The test can be described thus: cAMP-hydrolytic activity of FLAG-tagged PDE3A2 in transfected HEK293 cells. The test is classed as cell-based, human. To be noted: 10 ng/ml PMA 15 min, 1 mM dBcAMP 1 hour, isoproterenol. How it is done: FIGS. 9A-9B illustrate stimulation of PDE3A2 and PDE3A1 activity in response to PKC and PKA activation. (A) HEK293 cells were transfected with FLAG-tagged PDE3A2, with and without alanine substitution at S428, and treated with 10 ng/ml PMA for 15 min or 1 mM dBcAMP for 1 hour. (B) HEK293 cells were transfected with FLAG-tagged PDE3A1, with and without alanine substitutions at S312 and S428, and treated with 1 μM isoproterenol for 90 sec, 10 ng/ml PMA for 15 min or 1 mM dBcAMP for 1 hour. PDE3 activity was assayed as described. PDE3A constructs were immunoprecipitated with anti-FLAG antibody, and phosphorylation was analyzed by immunoblotting with anti-FLAG and phosphospecific antibodies as indicated; and
PKA and PKC modulate the catalytic activity of PDE3A and PDE3A2 through distinct molecular mechanisms: In view of the reported effects of PKA and PKC on PDE3A activity^3-6, we examined the effects of phosphorylation at S312 and S428 on the cAMP-hydrolytic activity of PDE3A isoforms in transfected HEK293 cells. […] This stimulation was not observed when cells were treated with either the EPAC activator 8-pCPT-2′-O-Me-cAMP or with sodium butyrate (FIG. 3). […] To determine whether similar consequences of phosphorylation occur in the case of PDE3A isoforms, protein extracts from transfected HEK293 cells, untreated or exposed to either isoproterenol or PMA, were analyzed by gel-filtration chromatography, measurement of catalytic activity and Western blotting. Under basal conditions, PDE3 activity and protein was recovered in a biphasic pattern in low- and high-molecular-weight peaks (FIG. 5).
Measurement of cAMP-hydrolytic activity: cAMP-hydrolytic activity was quantified at 30° C. by the two-step snake-venom method with [^3H]cAMP (1 μM) as substrate; PDE3 activity was quantified by measuring activity in the absence and presence of cilostamide. The amount of protein used per assay and the incubation times were adjusted to ensure that no more than 20% of the total cyclic nucleotide was hydrolyzed during the assay.
Treatment of cells with pharmacologic agents: HEK293 cells expressing the human PDE3A constructs were incubated at 37° C. in serum-free medium containing isoproterenol for 90 sec or PMA for 15 min. At the end of the incubation period, cells were solubilized in lysis buffer containing 20 mM MOPS pH 7.2, 15 mM MgCl2, 0.5% NP40, 150 mM NaCl, 5 mM EDTA, protease inhibitor cocktail and phosphatase inhibitor cocktail 3. Cellular debris was removed by centrifugation (1,000×g; 5 min), and cleared supernatants were used in the experiments.

The subject of a further test is PDE3A1. The test can be described thus: Gel-filtration chromatography and two-dimensional analysis of proteins co-immunoprecipitated with PDE3A1 from transfected HEK293 cells. It counts as cell-based, human. Conditions: 1 μM isoproterenol 90 sec. How it is done: FIGS. 5A-5B Illustrate two-dimensional analysis of HEK293 cell proteins co-immunoprecipitated with PDE3A, wherein FLAG-tagged PDE3A1- and PDE3A2-transfected HEK293 cells were treated with 1 μM isoproterenol for 90 sec or 10 ng/ml PMA for 15 min, respectively; untransfected, untreated cells served as controls. PDE3A1 and PDE3A2 were immunoprecipitated with anti-FLAG antibody. PDE3A isoforms and co-immunoprecipitated proteins were eluted with 250 μg/ml of 3×FLAG peptide and submitted to isoelectric focusing followed by SDS-PAGE. Proteins were visualized by silver staining, and spots were quantified and analyzed for inter-gel comparison using PDquest 8.1 software. Experiments were carried out in triplicate, such that (A) Images from one experiment are shown. […]
PKA and PKC modulate the catalytic activity of PDE3A and PDE3A2 through distinct molecular mechanisms: In view of the reported effects of PKA and PKC on PDE3A activity^3-6, we examined the effects of phosphorylation at S312 and S428 on the cAMP-hydrolytic activity of PDE3A isoforms in transfected HEK293 cells. […] To determine whether similar consequences of phosphorylation occur in the case of PDE3A isoforms, protein extracts from transfected HEK293 cells, untreated or exposed to either isoproterenol or PMA, were analyzed by gel-filtration chromatography, measurement of catalytic activity and Western blotting. […]

On to `CC(C)NCC(O)c1ccc(O)c(O)c1` (stereo not drawn) [isoproterenol], for which the “cAMP-hydrolytic activity of PDE3A2” value in the test with PDE3A2 was “no stimulation of either isoform”. Also, in the test with PDE3A1, the “elution of PDE3 activity and protein on Superose 6 gel filtration, PDE3A1-transfected cells” value is “pronounced shift of activity and protein from low- to high-molecular-weight peaks”. The “number of proteins co-immunoprecipitated with PDE3A1” value in the test with PDE3A1 (isoelectric focusing and SDS-PAGE) is “increased the number of proteins that co-immunoprecipitated with PDE3A1”.
